Experiment [1] is filed under the species Cricetulus griseus. The experiment is described as follows: Concentration of the highest non-toxic dose tested; c = Compound was too insoluble to test. The experiment is classed as functional.
The species entered for experiment [2] is Cricetulus griseus. The experiment is described as follows: Sensitizer enhancement ratio was determined from the ratio of the doses required to reduce cell survival to 25% of the control value obtained from hypoxic survival curves in the presence and absence of test compound; c = Compound was too insoluble to test. It is filed as functional.
A short description of experiment [3]: Sensitizer enhancement ratio was determined from the ratio of the doses required to reduce cell survival to 25% of the control value obtained from hypoxic survival curves in the presence and absence of test compound. The experiment is classed as functional, Cricetulus griseus.
The species entered for experiment [4] is Cricetulus griseus. In words: Concentration of the highest non-toxic dose tested. The experiment is classed as functional.

On to `CCOc1onc2c1C(=O)/C(=N\c1ccc(Cl)cc1)C=C2O`, for which the Concentration result in the experiment listed under Cricetulus griseus [1] is “Too insoluble”. The Ratio entry in the experiment listed under Cricetulus griseus [2] is “Too insoluble”.

As for `Cc1ccc(/N=C2/C=C(O)c3noc(NCCN(C)C)c3C2=O)cc1`, in experiment [3], the Ratio was 1.2. Further, the Concentration in the experiment listed under Cricetulus griseus [4] was found to be 0.05 mM.

Consider `O=C1C=C(Nc2ccc(C(F)(F)F)cc2)C(=O)c2c1noc2NCCN1CCCCC1`, for which the Ratio in experiment [3] was 1.6. Further, the Concentration in the experiment filed under Cricetulus griseus [4] came out at 0.13 mM.

Consider `O=C1C=C(Nc2ccc(F)cc2)C(=O)c2c1noc2NCCN1CCCCC1`, for which the Ratio in experiment [3] turned out to be 1.6. In the experiment listed under Cricetulus griseus [4], this molecule had a Concentration of 0.29 mM.

With `CCOc1onc2c1C(=O)/C(=N\c1ccccc1)C=C2O`, the Ratio in experiment [3] is given as 1.3. Besides, the Concentration in the experiment filed under Cricetulus griseus [4] came to 0.03 mM.

In the case of `CN(C)CCCNc1onc2c1C(=O)/C(=N\c1ccc(C(F)(F)F)cc1)C=C2O`, the Ratio in experiment [3] stood at 1.3. Also, the Concentration in the experiment filed under Cricetulus griseus [4] came to 0.09 mM.

Consider `CCN(CC)c1onc2c1C(=O)/C(=N\c1ccccc1)C=C2O`, for which the Concentration result in the experiment listed under Cricetulus griseus [1] is “Too insoluble”. For the same molecule, in the experiment filed under Cricetulus griseus [2], the Ratio result is “Too insoluble”.

Take `O=C1C=C(Nc2ccccc2)C(=O)c2c1noc2NCCN1CCCCC1`: the Ratio in experiment [3] worked out at 2.4. The molecule also returned a Concentration in the experiment listed under Cricetulus griseus [4] of 0.38 mM.

For the molecule `O=C1C=C(Nc2ccccc2)C(=O)c2c1noc2-c1ccccc1`, the Concentration result in the experiment listed under Cricetulus griseus [1] is recorded as “Too insoluble”. In addition, the Ratio entry in the experiment filed under Cricetulus griseus [2] is on record as “Too insoluble”.

On to `CCOc1onc2c1C(=O)/C(=N\c1ccc(F)cc1)C=C2O`, for which the Concentration result in the experiment filed under Cricetulus griseus [1] is on record as “Too insoluble”. Moreover, the Ratio result in the experiment filed under Cricetulus griseus [2] was “Too insoluble”.

On to `CN(C)CCCN(C)c1onc2c1C(=O)/C(=N\c1ccccc1)C=C2O`, for which the Ratio in experiment [3] stood at 1.5. In addition, the Concentration in the experiment filed under Cricetulus griseus [4] was determined as 0.38 mM.

For `CN(C)CCN(C)c1onc2c1C(=O)/C(=N\c1ccccc1)C=C2O`, the Ratio in experiment [3] is 2. In addition, the Concentration in the experiment filed under Cricetulus griseus [4] turned out to be 0.38 mM.

As for `CCOc1onc2c1C(=O)/C(=N\c1ccc(C)cc1)C=C2O`, the Concentration entry in the experiment filed under Cricetulus griseus [1] is recorded as “Too insoluble”. For the same molecule, the Ratio result in the experiment filed under Cricetulus griseus [2] is “Too insoluble”.

For `CN(C)CCCNc1onc2c1C(=O)/C(=N\c1ccccc1)C=C2O`, in experiment [3], the Ratio turned out to be 1.7. In the experiment listed under Cricetulus griseus [4], the Concentration was 0.19 mM.

As to `CCNc1onc2c1C(=O)/C(=N\c1ccccc1)C=C2O`, the Concentration result in the experiment listed under Cricetulus griseus [1] is given as “Too insoluble”. Moreover, the Ratio entry in the experiment filed under Cricetulus griseus [2] was “Too insoluble”.

For `O=C1C=C(Nc2ccc(Cl)cc2)C(=O)c2c1noc2NCCN1CCCCC1`, in experiment [3], the Ratio stood at 1.9. In the experiment listed under Cricetulus griseus [4], the Concentration is 0.19 mM.

On to `CN(C)CCNc1onc2c1C(=O)/C(=N\c1ccccc1)C=C2O`, for which the Ratio in experiment [3] turned out to be 1.5. In addition, the Concentration in the experiment listed under Cricetulus griseus [4] turned out to be 0.19 mM.

As to `CCOc1onc2c1C(=O)/C(=N\c1ccc(C(F)(F)F)cc1)C=C2O`, the Concentration result in the experiment listed under Cricetulus griseus [1] is reported as “Too insoluble”. Moreover, the Ratio result in the experiment listed under Cricetulus griseus [2] is “Too insoluble”.

In the case of `CN(C)CCCNc1onc2c1C(=O)/C(=N\c1ccc(Cl)cc1)C=C2O`, the Ratio in experiment [3] came out at 1.7. The same molecule displayed a Concentration in the experiment filed under Cricetulus griseus [4] of 0.13 mM.

Regarding `O=C1/C(=N\c2ccccc2)C=C(O)c2noc(N(CCO)CCO)c21`, the Ratio in experiment [3] is recorded as 2.1. Besides, the Concentration in the experiment listed under Cricetulus griseus [4] came to 1.5 mM.

On to `CN(C)CCCNc1onc2c1C(=O)/C(=N\c1ccc(F)cc1)C=C2O`, for which the Ratio in experiment [3] is 1.4. The molecule further had a Concentration in the experiment filed under Cricetulus griseus [4] of 0.38 mM.

Turning to `Cc1onc2c1C(=O)/C(=N\c1ccccc1)C=C2O`, the Concentration result in the experiment filed under Cricetulus griseus [1] is listed as “Too insoluble”. Also, the Ratio entry in the experiment listed under Cricetulus griseus [2] is reported as “Too insoluble”.

Values taken from ChEMBL document CHEMBL1125817, “Synthesis and evaluation of a series of 3,5-disubstituted benzisoxazole-4,7-diones. Potent radiosensitizers in vitro” (1991).
